Reference: patent US9487557B2, “Peptides for management of lactation” (MILEUTIS LTD., priority 2012, dated 2016)
Square brackets hold non-standard residues; d marks the D form. Ends that are not written are not given here. pS = N[C@@H](COP(=O)(O)O)C(=O)O

Legend:
Type in all cases: in vivo
[1] = tested on: mammary gland of lactating dairy cows; assay: Field study of involution induction: change in lactose content of milk samples after a single intramammary infusion at dry-off; conditions: for Changes in Lactose content in milk samples, Day 1, Mean / Changes in Lactose content in milk samples, Day 2, Mean / Changes in Lactose content in milk samples, Day 3, Mean: difference in lactose concentration vs Day 0, single intramammary infusion, peptides 4 mg in 10 ml, casein hydrolyzate 20 ml; for Changes in Lactose content in milk samples, Day 1, Mean: Day 1 post treatment; for Changes in Lactose content in milk samples, Day 2, Mean: Day 2 post treatment; for Changes in Lactose content in milk samples, Day 3, Mean: Day 3 post treatment
Protocol: (§1) A filed study was performed to assess the potential of a single intramammary dose of the synthetic peptides of the invention administered at dry (i.e. at the day in which milking is ceased), to induce rapid involution.
(§2) Total of 107 dairy cows were enrolled to the study, of which 45 received treatment and 62 served as a control. All cows were dairy cows at their first or further lactation that stand the inclusion/exclusion criteria. The study was a controlled blinded case-control study.
(§3) Case subjects received one dose by intramammary infusion of a particular peptide. Controls were lactating cows that received the following products by intramammary administration:
(§4) Five groups of 9 cows (total of 36 udder quarters per group) were scheduled as case groups. Each group was treated with one out of the five (5) phosphopeptides described in Example 1 hereinabove (P241210-01-01; 03; 05; 07 and 09). The peptides were administered once via intramammary infusion of 10 ml containing 4 mg peptide.
(§5) Set one: Five groups of 9 cows (total of 36 udder quarters per group) were scheduled as a first control set. Each group was treated with one out of the five (5) dephosphorylated peptides described in Example 1 hereinabove (P241210-01-02; 04; 06; 08 and 10). The peptides were administered once via intramammary infusion of 10 ml containing 4 mg peptide.
(§6) (i) Eleven cows (total of 44 udder quarters) treated with casein hydrolyzate (20 ml) administered once via intramammary infusion of 20 ml (around 1.8 mg/ml casein phosphopeptide (CPP), total=36 mg CPP for 20 ml)
(§7) All treatments (peptides, casein hydrolyzate and saline) were administered at the time point scheduled for cessation of milking (dry off). The day of administration was set as Day 0.
(§8) Sets of aseptic milk samples were collected in two separate vials once a day in the milking facility after the morning milking, on Day 0 and in post-treatment days 1, 2 and 3. The sampling time points were set to up to three days after treatment administration to ensure sufficient milk secretion for the measurements of all involution parameters. The volume of the samples was between 30 to 50 ml. The pH of the milk sample was measured in situ using a Cyberscan pH11 meter (Eutech Instruments, Singapore). The apparatus was calibrated each day by immersing the receptor in standard buffers of pH 7.0 and pH 4.01. Measurements were taken twice for each sample obtained from a mammary gland, with an interval of 30 seconds between measurements. pH measurement was repeated on-site by using the same sample vial. Before double-pH measurement, the milk sample vials were gently shaken three (3) times. After the pH measurement, the milk samples vials were kept in cool storage with a preservative product (Broad Spectrum Microtabs II—Bronopol and Metamycin—D&F Control System Inc., Two Technology Way, Norwood Mass. 02062 USA).
Lactose values in the milk samples were determined at the Central Laboratory of Milk Quality, Caesaria Industrial Park, Israel, according to ISO 2266211DF 198:2007.
Data from six quarters were excluded from the analysis of lactose changes. Data from one of those quarters were omitted due to a missing initial value. For the other five quarters, lactose concentrations taken during the three follow-up days could not be analyzed due to a rapid mammary involution process, resulting in non-sufficient milk sample for lactose analysis.
(§9) Endpoint Measures: pH, lactose and somatic cell counts (SCC) values from milk secretions at day 0 and during three (3) days post-treatment were taken. Results are described as the difference between the measures at each of the 3 days post treatment and the measured level at Day 0.
One of the most significant outcomes of involution in terms of milk composition is a reduction in lactose content. Thus, lactose concentration was also measured in the milk samples taken before and after peptide or CNH administration as described for the pH measurements hereinabove. […]

[2] = tested on: mammary gland of lactating dairy cows; assay: Field study of involution induction: change of pH in milk samples after a single intramammary infusion at dry-off; conditions: for Changes of pH in milk samples, Day 1, Mean / Changes of pH in milk samples, Day 2, Mean / Changes of pH in milk samples, Day 3, Mean: difference in pH vs Day 0, single intramammary infusion, peptides 4 mg in 10 ml, casein hydrolyzate 20 ml; for Changes of pH in milk samples, Day 1, Mean: Day 1 post treatment; for Changes of pH in milk samples, Day 2, Mean: Day 2 post treatment; for Changes of pH in milk samples, Day 3, Mean: Day 3 post treatment
Protocol: as §1, §2, §3, §4, §5, §6, §7, §8, §9
Table 2 below summarizes the effect of the peptides examined and of casein hydrolyzate (CNH) on the pH of milk samples taken 1, 2 and 3 days after the one-dose treatment with each peptide or CNH. The results are presented as the difference in pH value between each of the days post treatment and Day 0 (before treatment).

[3] = tested on: mammary gland of lactating dairy cows; assay: Field study of involution induction: change in somatic cell counts in milk samples after a single intramammary infusion at dry-off; conditions: for Changes in Somatic Cell Counts in milk samples, Day 1, Mean / Changes in Somatic Cell Counts in milk samples, Day 2, Mean / Changes in Somatic Cell Counts in milk samples, Day 3, Mean: change vs Day 0, calculated from log transformation of raw data, single intramammary infusion, peptides 4 mg in 10 ml, casein hydrolyzate 20 ml; for Changes in Somatic Cell Counts in milk samples, Day 1, Mean: Day 1 post treatment; for Changes in Somatic Cell Counts in milk samples, Day 2, Mean: Day 2 post treatment; for Changes in Somatic Cell Counts in milk samples, Day 3, Mean: Day 3 post treatment
Protocol: as §1, §2, §3, §4, §5, §6, §7, §8
Somatic cell count was also determined in milk samples by Fossomatic 360 (Foss Electric, Hillerod, Denmark), and based on guidelines from the USA National Mastitis Council. Laboratory Handbook on Bovine Mastitis. 1999. Ed. National Mastitis Council, Verona, Wis. 53593 USA.
as §9
Additional parameter that may be used to establish the progression of the involution process is the presence of somatic cells within the milk. The increase in cell count within the milk is the result of high degree of apoptotic epithelial cell death associated with involution. […] The results presented in the table were calculated from log transformation of the raw data that were highly variable.

Substance | effect on the reduction of lactose content, in words ([1]; all time points examined, compared with CNH) | Changes in Lactose content in milk samples, Day 1, Mean [1] | Changes in Lactose content in milk samples, Day 2, Mean [1] | Changes in Lactose content in milk samples, Day 3, Mean [1] | effect on the milk pH, in words ([2]; compared with the other peptides and casein hydrolyzate, particularly first 2 days after treatment) | Changes of pH in milk samples, Day 1, Mean [2] | Changes of pH in milk samples, Day 2, Mean [2] | Changes of pH in milk samples, Day 3, Mean [2] | Changes in Somatic Cell Counts in milk samples, Day 1, Mean [3] | Changes in Somatic Cell Counts in milk samples, Day 2, Mean [3] | Changes in Somatic Cell Counts in milk samples, Day 3, Mean [3] | induction of involution, overall conclusion in words ([3]; conclusion from pH, lactose and somatic cell count results)
Lys-Lys-Ser(P)-Ser(P)-Ser(P)-NH2 (KK[pS][pS][pS]-NH2; N-terminus assumed; SMILES NCCCC[C@H](NC(=O)[C@@H](N)CCCCN)C(=O)N[C@@H](COP(=O)(O)O)C(=O)N[C@@H](COP(=O)(O)O)C(=O)N[C@@H](COP(=O)(O)O)C(N)=O) [B(p)] | higher effect on the reduction of lactose content compared to the effect of CNH | −1.250 | −2.013 | −2.521 | showed the most significant effect on the milk pH | 0.171 | 0.165 | 0.163 | 3.129 | 3.099 | 3.451 | highly effective in inducing involution
Lys-Lys-Ser-Ser-Ser-NH2 [B] | – | −0.320 | −0.969 | −1.412 | – | −0.015 | −0.019 | 0.065 | 0.109 | 0.664 | 1.191 | –
Lys-Lys-Ser(P)-Ser(P)-NH2 (KK[pS][pS]-NH2; N-terminus assumed; SMILES NCCCC[C@H](NC(=O)[C@@H](N)CCCCN)C(=O)N[C@@H](COP(=O)(O)O)C(=O)N[C@@H](COP(=O)(O)O)C(N)=O) [C(p)] | – | −0.509 | −1.427 | −0.345 | – | 0.066 | 0.046 | 0.119 | −0.129 | 0.961 | 0.195 | –
